Reference: patent US9604945B2, “Sydnonimines-specific dopamine reuptake inhibitors and their use in treating dopamine related disorders” (priority 2007, dated 2017)

Assays:
[1] = test system: male mice; test: Novel environment-induced feeding suppression (NEIFS); assay type: in vivo, mouse; conditions: 10 and 90 mg/kg, FIG. 10
Experimental: Novel environment-induced feeding suppression (NEIFS) testing was also performed. Individually housed male mice aged 8-12 weeks are used for this testing. Mice were maintained no a reverse L:D/12 p.m.:12 a.m. cycle in a barrier facility with food and water available ad libitum. Testing occurred towards the end of the light cycle between 6-12 a.m. The mice were acclimated to the testing room for at least 30 minutes.
Days 1, 2, 3 and 5 (Home cage): A Petri dish containing crushed Graham crackers was placed in the farthest corner from each mouse in its own home cage. The time to approach (defined as nose of the mouse directed at or within 1 cm of the dish) and consume (eat, not pick up) the crackers was recorded immediately following the placement of the dish into home cage.
Day 4 (Novel environment): The procedure followed was the same as described for home cage; however, on day 4 the mouse was placed in a new cage with bedding (novel environment) for the duration of the experiment. The mice were subsequently returned to their respective home cages for day 5 testing. The remaining crackers and Petri dish were disposed of at the end of the experiment for each mouse.

[2] = test system: male Swiss Webster mice; test: Spontaneous locomotor activity dose response study (NIDA MDD protocol); assay type: in vivo, mouse; conditions: 3, 10, 30 or 100 mg/kg IP, FIGS. 4 and 5
Experimental: A dose response study was conducted of locomotor depression induced by the compound of Example 3, according to NIDA's Medication Development Division (MDD) locomoter activity studies standard protocol. The study was conducted using 40 Digiscan locomotor activity testing chambers (40.5×40.5×30.5 cm) housed in sets of two, within sound attenuating chambers. A panel of infrared beams (16 beams) and corresponding photodetectors were located in the horizontal direction along the sides of each activity chamber. A 7.5 W incandescent light above each chamber provided dim illumination. Fans provided an 80 dB ambient noise level within the chamber. Separate groups of 8 non-habituated male Swiss Webster mice (Hsd:ND4, aged 2-3 months) were injected via the intraperitoneal (IP) route with either vehicle (2% methyl cellulose) or the compound of Example 3, above, (3, 10, 30 or 100 mg/kg) twenty minutes prior to locomotor activity testing. Just piro to placement in the apparatus, all mice received a saline injection IP. In all studies, horizontal activity (interruption of photocell beams) was measured for 1 hour within 10 minute periods. Testing was conducted with one mouse per activity chamber.
The same protocol was followed in a study of locomotor depression induced by the compound of Example 6. […]

[3] = test system: mice; test: Irwin behavioral battery; assay type: in vivo, mouse; conditions: FIGS. 7A-7C
Experimental: To further characterize the pharmacological effects of these compounds, Irwin behavioral battery testing was performed.
Testing occurred towards the end of the light cycle between 8-11 a.m. (lights go off at 11:00 a.m.). The mice were acclimated to the testing room for at least 30 minutes. The Irwin test equipment (timer, viewing jar and support, open arena, grid, ruler, sound box, wood stocks, kimwipes box) was placed under a laminar flow hood. The mouse was first placed in the viewing jar for five (5) minutes and the following parameters were scored:
At the end of the 5-minute period, the viewing jar with the muose in it was transferred to the arena, where the jar was disassembled and the mouse released into the arena. The mouse was not handled by the experimenter. The following parameters were scored in the arena in the following order:
Then the mouse was picked up by its tail and kept above the arena to score the following set of parameters:
The mouse was then placed in supine restraint to score the below parameters in the following order:
The final three parameters were scored with the mouse above or in the arena: […]

[4] = Brain drug concentration by different routes of administration; assay type: in vivo, C57BL/6 mice; conditions: for Brain Drug Concentration: time 0 (pre-dose); for concentration at 5 min / concentration at 15 min / concentration at 30 min / concentration at 60 min / concentration at 120 min / concentration at 240 min / concentration at 480 min: C57BL/6, mouse, brain
Experimental: (§1) The following materials and methods are provided to facilitate the practice of Example 9, in which drug concentration in certain biological samples were assessed using different routes of administration.
(§2) Parameters Used in Dosing and Drug Administration of the Compound of Example 3:
(§3) Adult C57BL/6 mice (preferred 16 weeks old).
(§4) Three mice per time point. If all three routes are conducted in same day, one group of pre-dose is efficient.
(§5) In the studies using adult C57BL/6 mice (preferably approximately 16 weeks old), dosing and drug administration parameters for the compound of Example 3 were explored. Clearly, the compound is suitable for oral administration and lasts in the plasma up to 2-3 hours.

[5] = Plasma drug concentration by different routes of administration; assay type: in vivo, C57BL/6 mice; conditions: for Plasma Concentration: time 0 (pre-dose); for concentration at 5 min / concentration at 15 min / concentration at 30 min / concentration at 60 min / concentration at 120 min / concentration at 240 min / concentration at 480 min: C57BL/6, mouse, plasma
Experimental: as §1, §2, §3, §4, §5

Cc1ccc(C[n+]2[cH-]/c(=N\C(=O)Nc3ccccc3)on2)cc1 [Example 3, N-phenylcarbamoyl-3-(p-methyl-benzyl)-sydnonimine]
Anxiolytic effect in novel environment induced feeding suppression [1]: induced measurable anxiolytic effects | Effect on spontaneous locomotor activity [2]: dose dependent suppression of spontaneous locomotor activity | Behavioral effects in Irwin Behavioral Battery (spontaneous activity, grip strength, limb tone) [3]: induced significant behavioral effects | Brain Drug Concentration ([4]; 10 mg/kg (IP)): 0.00 ng/mL | Brain Drug Concentration ([4]; 10 mg/kg (IV)): 95.10 ng/mL | Brain Drug Concentration ([4]; 10 mg/kg (PO)): 107.55 ng/mL | Brain Drug Concentration ([4]; 30 mg/kg (PO)): 123.97 ng/mL | concentration at 5 min ([4]; intraperitoneal, 10 mg/kg (IP)): 1460 ng/mL | concentration at 15 min ([4]; intraperitoneal, 10 mg/kg (IP)): 374 ng/mL | concentration at 30 min ([4]; intraperitoneal, 10 mg/kg (IP)): 242 ng/mL | concentration at 60 min ([4]; intraperitoneal, 10 mg/kg (IP)): 190 ng/mL | concentration at 120 min ([4]; intraperitoneal, 10 mg/kg (IP)): 70.2 ng/mL | concentration at 240 min ([4]; intraperitoneal, 10 mg/kg (IP)): 143 ng/mL | concentration at 480 min ([4]; intraperitoneal, 10 mg/kg (IP)): 123 ng/mL | concentration at 5 min ([4]; 10 mg/kg (IV)): 2310 ng/mL | concentration at 15 min ([4]; 10 mg/kg (IV)): 1720 ng/mL | concentration at 30 min ([4]; 10 mg/kg (IV)): 1140 ng/mL | concentration at 60 min ([4]; 10 mg/kg (IV)): 464 ng/mL | concentration at 120 min ([4]; 10 mg/kg (IV)): 78.7 ng/mL | concentration at 240 min ([4]; 10 mg/kg (IV)): 178 ng/mL | concentration at 480 min ([4]; 10 mg/kg (IV)): 49 ng/mL | concentration at 5 min ([4]; 10 mg/kg (PO)): 418 ng/mL | concentration at 15 min ([4]; 10 mg/kg (PO)): 298 ng/mL | concentration at 30 min ([4]; 10 mg/kg (PO)): 150 ng/mL | concentration at 60 min ([4]; 10 mg/kg (PO)): 158 ng/mL | concentration at 120 min ([4]; 10 mg/kg (PO)): 165 ng/mL | concentration at 240 min ([4]; 10 mg/kg (PO)): 97.5 ng/mL | concentration at 480 min ([4]; 10 mg/kg (PO)): 163 ng/mL | concentration at 5 min ([4]; 30 mg/kg (PO)): 869 ng/mL | concentration at 15 min ([4]; 30 mg/kg (PO)): 845 ng/mL | concentration at 30 min ([4]; 30 mg/kg (PO)): 627 ng/mL | concentration at 60 min ([4]; 30 mg/kg (PO)): 218 ng/mL | concentration at 120 min ([4]; 30 mg/kg (PO)): 203 ng/mL | concentration at 240 min ([4]; 30 mg/kg (PO)): 183 ng/mL | concentration at 480 min ([4]; 30 mg/kg (PO)): 168 ng/mL | Brain penetration ([4]; administered orally or via intravenous administration): reaches the brain | Plasma Concentration ([5]; 10 mg/kg (IP)): 21.00 ng/mL | Plasma Concentration ([5]; 10 mg/kg (IV)): 18.33 ng/mL | Plasma Concentration ([5]; 10 mg/kg (PO)): 10.60 ng/mL | Plasma Concentration ([5]; 30 mg/kg (PO)): 8.93 ng/mL | concentration at 5 min ([5]; intraperitoneal, 10 mg/kg (IP)): 973 ng/mL | concentration at 15 min ([5]; intraperitoneal, 10 mg/kg (IP)): 316 ng/mL | concentration at 30 min ([5]; intraperitoneal, 10 mg/kg (IP)): 544 ng/mL | concentration at 60 min ([5]; intraperitoneal, 10 mg/kg (IP)): 115 ng/mL | concentration at 120 min ([5]; intraperitoneal, 10 mg/kg (IP)): 82.5 ng/mL | concentration at 240 min ([5]; intraperitoneal, 10 mg/kg (IP)): 34 ng/mL | concentration at 480 min ([5]; intraperitoneal, 10 mg/kg (IP)): 31.2 ng/mL | concentration at 5 min ([5]; 10 mg/kg (IV)): 2090 ng/mL | concentration at 15 min ([5]; 10 mg/kg (IV)): 2110 ng/mL | concentration at 30 min ([5]; 10 mg/kg (IV)): 915 ng/mL | concentration at 60 min ([5]; 10 mg/kg (IV)): 417 ng/mL | concentration at 120 min ([5]; 10 mg/kg (IV)): 139 ng/mL | concentration at 240 min ([5]; 10 mg/kg (IV)): 47.4 ng/mL | concentration at 480 min ([5]; 10 mg/kg (IV)): 94.6 ng/mL | concentration at 5 min ([5]; 10 mg/kg (PO)): 218 ng/mL | concentration at 15 min ([5]; 10 mg/kg (PO)): 115 ng/mL | concentration at 30 min ([5]; 10 mg/kg (PO)): 59.9 ng/mL | concentration at 60 min ([5]; 10 mg/kg (PO)): 21.3 ng/mL | concentration at 120 min ([5]; 10 mg/kg (PO)): 17.6 ng/mL | concentration at 240 min ([5]; 10 mg/kg (PO)): 15.8 ng/mL | concentration at 480 min ([5]; 10 mg/kg (PO)): 14.3 ng/mL | concentration at 5 min ([5]; 30 mg/kg (PO)): 838 ng/mL | concentration at 15 min ([5]; 30 mg/kg (PO)): 670 ng/mL | concentration at 30 min ([5]; 30 mg/kg (PO)): 375 ng/mL | concentration at 60 min ([5]; 30 mg/kg (PO)): 114 ng/mL | concentration at 120 min ([5]; 30 mg/kg (PO)): 41.9 ng/mL | concentration at 240 min ([5]; 30 mg/kg (PO)): 48.5 ng/mL | concentration at 480 min ([5]; 30 mg/kg (PO)): 13.4 ng/mL | Time the compound lasts in the plasma ([5]; mouse, in vivo): 2 to 3 h

O=C(/N=c1\[cH-][n+](CCCc2ccccc2)no1)Nc1ccccc1 [Example 6, N-phenylcarbamoyl-3-(phenylpropyl)-sydnonimine]
Oral bioavailability compared to Example 3 ([5]; oral, 10 and 30 mg/kg, FIG. 3): relatively higher oral bioavailability | Bioavailability in the plasma and brain compared to Example 3 ([5]; same dosage, different routes, FIGS. 2A-2D): slightly better bioavailability
